{
  "source": "patent US20250340902A1",
  "about": "“GENE THERAPY FOR BVES-RELATED DISORDERS” (OHIO STATE INNOVATION FOUNDATION, priority 2022, published 2025)",
  "key": {"[1]": {"test_system": "ADCY3/ADCY6 double KO HEK293 cells with stable expression of cAMPr", "test": "cAMPr reporter assay", "type": "cell-based, human", "settings": "500 μM"}, "BVES-KO mice": {"test_system": "BVES-KO mice", "test": "Bortezomib treatment of BVES-KO mice", "type": "in vivo, mouse", "settings": "vs vehicle", "procedure": "Histology analysis and immunofluorescence staining. The skeletal muscles were embedded in optimal cutting temperature (OCT) compound, flash frozen using isopentane chilled in liquid nitrogen and kept at −80° C. until used. Cryosections were prepared using a cryostat Leica CM3054. For hematoxylin and eosin (H&E), transversely oriented sections (10 μm) were cut at mid-point, stained and imaged using a Nikon Ti-E inverted fluorescence microscope equipped with a Lumenera Infinity Color CCD camera and a Nikon Super Fluor 20×0.75 NA objective lens (Nikon Inc., Melville, NY) as previously described.\nFor immunofluorescence staining, frozen tissue sections (10 μm) were fixed with 4% paraformaldehyde for 10 minutes at room temperature. After washing with PBS, the slides were blocked with 5% BSA/PBS for one hour. The slides were incubated with the indicated primary antibodies (Table 3) at 4° C. overnight. After extensive washing with PBS, the slides were incubated with the secondary antibodies (1:400) (Table 3) for one hour at room temperature. The slides were sealed with […] Antifade Mounting Medium with DAPI (Vector Laboratory, Burlingame, CA). The images were taken under a LSM780 microscope (Zeiss, Germany) and assembled to figures using Adobe Photoshop 21.0.2 (Adobe, San Jose, CA). Fiber size and CNF quantification were carried out using Myosight with manual calibration on the entire cross-sections of GA muscles.\nBortezomib Treatment. Bortezomib was purchased from Selleck Chemicals (#S0130, Houston, TX). A stock solution (5 mg/ml) dissolved in the vehicle 2% DMSO, 30% PEG300 and ddH2O were aliquoted and stored at […]. An equal volume of Bortezomib (0.8 mg/kg diluted with the vehicle) or vehicle was I.P. injected once bi-weekly into BVES-KO mice (N=6 per treatment) at 12 weeks age, respectively. After two months of treatment, force measurement and exercise evaluation were performed. Mice were sacrificed after 3-month treatment. QU and GA muscles were processed for histopathology, immunofluorescence and Western blot analyses.\nForce measurement. The muscle contractility was measured using an in vivo muscle test system (Aurora Scientific Inc) as previously described. Briefly, mice were anesthetized with 2% (w/v) isoflurane and anesthesia was maintained by 2% isoflurane (w/v) during muscle contractility measurement. Maximum plantarflexion tetanic torque was measured during a train of supramaximal electric stimulations of the tibial nerve (pulse frequency 150 Hz, pulse duration 0.2 ms) using the DMA v5.501 (Aurora Scientific Inc).\nExercise and exhaustion assay. Time and distance to exhaustion was performed as previously described. Briefly, prior to training, the randomized mice were firstly acclimated to the treadmill (LE8710MTS, Harvard Apparatus) for two consecutive days at slow speed (10 cm/s) for 5 min. On the third day, mice were placed on an uphill) (15° treadmill with an initial speed of 10 cm/s, increased every 4 min by 5 cm/s. Mice were considered to be exhausted when the animal's hindlimbs remained on the electric grid for more than 10 s. Time and distance were automatically collected via the software SeDaCOM (Harvard Apparatus)."}, "[2]": {"test_system": "WT and BVES-KO skeletal muscles", "test": "Autophagic flux assay (colchicine), LC3B Western blot in GA muscles", "type": "in vivo, mouse", "settings": "0.4 mg/kg I.P. daily 7 days", "procedure": "Autophagic flux assay. A stock solution of colchicine (4 mg/ml in sterile ddH2O, C9754, Sigma-Aldrich) was prepared and stored at −20° C. until the day of treatment. Immediately prior to administration, the colchicine stock solution was diluted to 0.1 mg/mL in sterile ddH2O water. An equal volume of colchicine (0.4 mg/kg) or vehicle was administered to mice (6 weeks old) daily via I.P. injection for 7 days. Muscle tissues were harvested from treated mice on the day after the final treatment.\nWestern blot. The cells and tissues were homogenized/lysed with cold RIPA buffer supplemented with protease inhibitors, and the extracted proteins were quantified by DC™ Protein Assay Reagent (Bio-Rad, Hercules, CA). The membrane extraction was performed using the Membrane Protein Extraction Kit (ab65400, Abcam, Waltham, MA) according to the manufacturer's instruction. The extracted protein samples were separated by stain-free SDS-PAGE gels (Bio-Rad, 4-15%) and transferred onto Nitrocellulose Membranes (0.45 μm). The membrane was incubated with the primary antibodies (Table 3) at 4° C. overnight. Secondary HRP-conjugated goat anti-mouse (1:4000) and goat anti-rabbit (1:4000) antibodies were obtained from Cell Signaling Technology (Danvers, MA). […] Western blots were quantified using Image Lab 6.0.1 software (Bio-Rad Laboratories, Hercules, CA) according to the manufacturer's instruction."}},
  "data": [
    {"smiles": "CC(C)Cn1c(=O)n(C)c(=O)c2[nH]cnc21", "note": "[IBMX, 3-isobutyl-1-methylxanthine]", "values": [
      {"measurement": "cAMP (cAMPr fluorescence) change", "setting": "[1]; ADCY9-transfected cells", "value": "gradual increase"},
      {"measurement": "cAMP (cAMPr fluorescence) change", "setting": "[1]; cells co-transfected with BVES and ADCY9", "value": "substantially reduced cAMP elevation"}
    ]},
    {"smiles": "CC(C)C[C@H](NC(=O)[C@H](Cc1ccccc1)NC(=O)c1cnccn1)B(O)O", "note": "[bortezomib]", "values": [
      {"measurement": "body weight", "setting": "BVES-KO mice; 0.8 mg/kg I.P. once bi-weekly, 2 months", "value": "significantly increased"},
      {"measurement": "fiber size (CSA, GA)", "setting": "BVES-KO mice; 0.8 mg/kg I.P., 2 months", "value": "significantly increased"},
      {"measurement": "muscle contractility (tetanic torque)", "setting": "BVES-KO mice; 0.8 mg/kg I.P., 2 months", "value": "enhanced"},
      {"measurement": "physical performance on treadmill running (time to exhaustion, total running distance)", "setting": "BVES-KO mice; 0.8 mg/kg I.P., 2 months", "value": "improved"},
      {"measurement": "mass of quadriceps and gastrocnemius muscles (normalized to body weight)", "setting": "BVES-KO mice; 0.8 mg/kg I.P.", "value": "significantly increased"},
      {"measurement": "muscle pathology (H&E staining, GA)", "setting": "BVES-KO mice; 0.8 mg/kg I.P.", "value": "remarkably improved"},
      {"measurement": "percentage of CNFs (GA)", "setting": "BVES-KO mice; 0.8 mg/kg I.P.", "value": "reduced"}
    ]},
    {"smiles": "COc1cc2c(c(OC)c1OC)-c1ccc(OC)c(=O)cc1[C@@H](NC(C)=O)CC2", "note": "[colchicine]", "values": [
      {"measurement": "LC3B (Western blot)", "setting": "[2]", "value": "significant increase"}
    ]}
  ]
}
